Patent US8252740B2, “Thermally-targeted delivery of medicaments including doxorubicin” (The University of Mississippi Medical Center, priority 2006, dated 2012)
“Also recorded” adds a separate entry of the source. Read-outs that look alike come from different tables or passages of the source. Marks after values point to notes of the source that are not given here.

Experiments:
Assay type in all cases: cell-based, human
[1] = test system: MES-SA cells; experiment: Caspase activation, FLICA polycaspase assay with flow cytometry; conditions: 10 μM, 1 h
Description: MES-SA cells were treated for 1 h at 37 or 42° C. with Tat-ELP-GFLG-DOX (SEQ ID NO: 3), the control construct lacking the Tat sequence, with free DOX. Cells were harvested after the 1 h exposure, and caspase activity was detected using a fluorescent caspase inhibitor (Immunochemistry Technologies, Bloomington, Minn.) and flow cytometry.
Caspase activation was measured using a carboxyfluorescein FLICA polycaspase assay (Immunochemistry Technologies, Bloomington, Minn.). Cells were treated as described above with the indicated protein, collected by trypsinization, and stained for 2 h at 37° C. with the carboxyfluorescein FLICA reagent as described by the manufacturer. Cells were rinsed twice and analyzed for caspase activation by flow cytometry using a Cytomics FC 500 flow cytometer (n=5,000 cells). Forward versus side scatter gating was used to eliminate cell debris from the analysis, and a histogram of fluorescein fluorescence (channel FL1) was bimodal with peaks for caspase positive and caspase negative cells. The percentage of caspase positive cells was determined from the histograms and expressed as an average of 3 experiments.
MES-SA cells were treated as described above, cells were harvested after the 1 h exposure, and caspase activity was detected using a fluorescent caspase inhibitor and flow cytometric analysis. […] Cell numbers under each peak were quantified and averaged to determine the percentage of the cell population in which caspases were activated under each treatment condition. […] In fact, the percent of caspase positive cells was enhanced almost 4 fold when cells were treated with Tat-ELP1-GFLG-Dox (SEQ ID NO: 3) at 42° C. versus 37° C. (p<0.05).

[2] = test system: MES-SA/Dx5 cells; experiment: Drug efflux by flow cytometry; conditions: loaded 5 h with 10 μM
Description: For further evidence that Tat-ELP-GFLG-DOX (SEQ ID NO: 3) can bypass the drug efflux pump, flow cytometry was used to analyze drug efflux from cells treated with free DOX or with Tat-ELP-GFLG-DOX (SEQ ID NO: 3). Cells were loaded for 5 h with either 10 μM DOX or Tat-ELP-GFLG-DOX (SEQ ID NO: 3), then the drug was removed and fresh media was replaced. Cells were collected and analyzed for DOX content using flow cytometry. […] The cells with low DOX fluorescence have pumped the drug out. As time passes after removal of the drug, the DOX positive peak gets lower in intensity and becomes a smaller percentage of the population. This illustrates the removal of DOX from theses cells with time after washing the drug out of the media. […] This means that all cells have the same amount of drug in them. This single peak is still evident at all time points after removal of the drug. This means that these cells are unable to pump the ELP delivered DOX out.

[3] = test system: MES-SA uterine sarcoma cells; conditions: for IC50: cells counted after 72 h, ± SEM
Description: MES-SA cells were treated for 1 h at 37 or 42° C. with 5 μM Tat-ELP-GFLG-DOX (SEQ ID NO: 3); ELP-GFLG-DOX (SEQ ID NO: 3), which lacks the Tat cell penetrating peptide; or Tat-ELP-GFLG (SEQ ID NO: 3), which is not labeled with DOX. After the 1 h treatment, cells were rinsed and fresh media was replaced for 72 h. Cells remaining after 72 h were collected by trypsinization and counted using a Coulter counter. […] Similarly, the control polypeptide which lacks the Tat sequence was not cytotoxic, likely because it cannot efficiently enter the cells.
1.8 Cytotoxicity Assay. Cells were plated and treated for 1 h at 37° C. and 42° C. as described above with Tat-ELP1-GFLG-Dox (SEQ ID NO: 3), Tat-ELP2-GFLG-Dox (SEQ ID NO: 3), or control polypeptides lacking the Tat sequence or unlabeled with Dox. Cells were rinsed and harvested 72 h after treatment by trypsinization, collected by centrifugation, and resuspended in isotonic buffer. Cell number was determined using a Coulter counter and expressed as a percentage of untreated cells.
1.10. Data Fitting and Statistical Analysis. The concentration dependence of the Tt was fit with a logarithmic equation using Microsoft Excel. Dose-response curves were fit using exponential or sigmoid equations as applicable using Microcal Origin in order to determine the 50% inhibitory concentration (IC50). […] The significance of the thermal targeting index was assessed by comparing the normothermia group with the hyperthermia group using a paired Student's t-test in Microsoft Excel. p values of less than 0.05 were considered statistically significant. Polypeptide uptake and caspase activation were analyzed for statistical differences using one-way ANOVA analyses with post-hoc Scheffe's tests for pair-wise comparisons of treatment groups. The statistical significance level was p<0.05.
3.5. Cytotoxicity of ELP-delivered Dox. The growth-inhibitory activity of Tat-ELP-GFLG-Dox (SEQ ID NO: 3) was evaluated in the MES-SA uterine sarcoma cell line. MES-SA cells were treated for 1 h at 37° C. or 42° C. with various concentrations of Tat-ELP-GFLG-Dox (SEQ ID NO: 3); ELP-GFLG-Dox (SEQ ID NO: 3), which lacks the Tat cell penetrating peptide, the Tat-ELP-GFLG (SEQ ID NO: 3) polypeptide without Dox; or free Dox. After the 1 h treatment, the cells were rinsed and fresh media was replaced for 72 h. Cells remaining after 72 h were rinsed, collected by trypsinization, and counted using a Coulter counter. […] The toxicity of the unlabeled Tat-ELP-GFLG (SEQ ID NO: 3) protein was negligible when treated below the Tt.

[4] = test system: MES-SA/Dx5 cells; experiment: Proliferation of doxorubicin-resistant cells, continuous 72 h exposure
Description: To test the ability of the ELP doxorubicin carrier to overcome this drug resistance, a uterine cancer cell line (MES-SA) and its doxorubicin resistant subline MES-SA/Dx5 were treated with either free doxorubicin or ELP-delivered doxorubicin.
A major problem with classical chemotherapy is the development of drug resistance. The most common mechanism of resistance is expression of a drug efflux pump (MDR1) by the cancer cells in response to drug treatment. This pump can remove drugs from the cells, and, though induced by one drug, it can act on a wide variety of others, resulting in a phenomenon called multi-drug resistance. […] The present inventors used this cell line to determine whether ELP delivered DOX can overcome MDR1-mediated resistance to doxorubicin. MES-SA/Dx5 cells were incubated with Tat-ELP-GFLG-DOX (SEQ ID NO: 3) continuously for 72 h.

[5] = test system: MES-SA cells; experiment: DIC microscopy of apoptotic cell morphology; conditions: 10 μM, 1 h, temperature not distinguished
Description: 1.9. Apoptosis Assays. For differential interference contrast (DIC) microscopy, MES-SA cells were plated onto 22 mm^2 coverslips at 50% confluence. Cells were treated as described above with the indicated protein, rinsed with PBS, and mounted onto glass slides. The unfixed cells were imaged immediately using a Zeiss Axiovert 200 DIC microscope with a 40× oil immersion objective and a Coolsnap HQ camera.
2.6. Induction of Apoptosis. […] This effect was documented by treating MES-SA cells adhered to glass cover slips with each construct and imaging them by DIC microscopy. Cells were treated for 1 h as described above, then immediately mounted on slides and imaged without fixation. […] Untreated cells were spread onto the glass, and morphological features such as nuclei and endocytic vesicles were readily visible. This morphology was not altered by simply exposing the cells to hyperthermia. […] However, such effects were minor and limited to a fraction of the cells. […] All cells examined were rounded with no discernable nucleus and fragmented chromosomes.

[6] = test system: MES-SA cells; experiment: Confocal fluorescence microscopy of intracellular localization; conditions: 10 μM, after 1 h exposure; listed as free drug
Description: 1.7. Laser Scanning Confocal Fluorescence Microscopy. MES-SA cells were plated on 22 mm^2 cover slips at approximately 50% confluence and treated as described above with Tat-ELP-GFLG-Dox (SEQ ID NO: 3). Cells were rinsed with PBS at the indicated times, fixed with paraformaldehyde (PFA, 2% v/v) and visualized using a TCS SP2 laser scanning confocal microscope with a 100× oil immersion objective (Leica, Wetzlar, Germany). PMT voltages were lowered for imaging of cells treated at 42° C. during image acquisition to maximize image resolution and intensity.
3.4. Cellular Distribution. To confirm that Tat-ELP-GFLG-Dox (SEQ ID NO: 3) was internalized and not merely attached to the cell exterior, the cellular distribution of the ELP-delivered drug was examined by confocal fluorescence microscopy. MES-SA cells were treated for 1 h at 37° C. and 42° C. with 10 μM Tat-ELP1-GFLG-Dox (SEQ ID NO: 3). The cells were rinsed and analyzed immediately after treatment and 24 h later using the intrinsic Dox fluorescence. […] Untreated cells had no signal under the imaging settings used, ruling out any contribution to the images from autofluorescence (FIG. 7B, right panel).

COc1cccc2c1C(=O)c1c(O)c3c(c(O)c1C2=O)C[C@@](O)(C(=O)CO)C[C@@H]3O[C@H]1C[C@H](N)[C@H](O)[C@H](C)O1 [Dox, doxorubicin]
Enhancement of percent caspase positive cells at 42° C. versus 37° C. [1]: not affected by hyperthermia | Caspase activation / apoptosis induction ([1]; temperature not distinguished): induced apoptosis | Drug efflux: Dox fluorescence histogram after removal of the drug [2]: two populations | Cytotoxicity in words [3]: more cytotoxic than the polymer-delivered drug | IC50 relative to Tat-ELP-GFLG delivered Dox (times lower) [3]: about 150 times | IC50 ([3]; 1 h treatment at 37° C., read-out: IC50 (37° C.)): 130 ± 10 nM | IC50 ([3]; 1 h treatment at 42° C., read-out: IC50 (42° C.)): 58 ± 20 nM | Thermal Targeting Index (IC50 37°/IC50 42°) ([3]; IC50 at 37° C. divided by IC50 at 42° C.): 2.3 † | Resistance of MES-SA/Dx5 relative to MES-SA cells [4]: 100 times | Resistance of MES-SA/Dx5 relative to MES-SA cells ([4]; continuous 72 h exposure): about 100 fold | Cell morphology (hallmarks of apoptosis) [5]: noticeable rounding and membrane blebbing | Intracellular localization of Dox [6]: exclusively in the cell nucleus; also recorded: localizes entirely in the nucleus
